Data published in patent US20240148821A1, “PHARMACEUTICAL USE OF CYCLIC PEPTIDE COMPOUND” (CHUGAI SEIYAKU KABUSHIKI KAISHA, priority 2021, published 2024).
Numbered stars: 1 amine (or outer) side, 2 acyl side, 3 side chain; on linkers, the order of the positions; unused ones are H or OH. Bridge positions count the residues as written; N and C are the ends. Square brackets hold non-standard residues; d marks the D form. Peptide text beside a SMILES is read from it. * marks the point of attachment. hPhe(3,5-F2-4-CF3) = N[C@@H](CCc1cc(F)c(C(F)(F)F)c(F)c1)C(=O)O; hPhe(3-Cl-4-CF3) = N[C@@H](CCc1ccc(C(F)(F)F)c(Cl)c1)C(=O)O; hPhe(3-F,4-CF3) = N[C@@H](CCc1ccc(C(F)(F)F)c(F)c1)C(=O)O; NEtPhe(4-CF3) = CCN[C@@H](Cc1ccc(C(F)(F)F)cc1)C(=O)O; NMePhe(4-CF3) = CN[C@@H](Cc1ccc(C(F)(F)F)cc1)C(=O)O; NEtPhe(4-Me) = CCN[C@@H](Cc1ccc(C)cc1)C(=O)O; NMePhe(4-Cl) = CN[C@@H](Cc1ccc(Cl)cc1)C(=O)O; NMedβ3hAla = C[C@H](CC(=O)[*:2])N(C)[*:1]; NMeGly(cPent) = CN[C@H](C(=O)O)C1CCCC1; NMeCha = CN[C@@H](CC1CCCCC1)C(=O)O; Hyp = O=C(O)[C@@H]1C[C@@H](O)CN1; NMeChg = CN[C@H](C(=O)O)C1CCCCC1; NMeI = CC[C@H](C)[C@H](NC)C(=O)O; NMeD = CN[C@@H](CC(=O)O)C(=O)O; NMeL = CN[C@@H](CC(C)C)C(=O)O; Cba = N[C@@H](CC1CCC1)C(=O)O; NMeV = CN[C@H](C(=O)O)C(C)C; d(β3hA) = C[C@@H](N)CC(=O)O; Azetidin(1-yl) = C1CN(*)C1; NMeS = CN[C@@H](CO)C(=O)O; NMeA = CN[C@@H](C)C(=O)O; Piperidide = C1CCN(*)CC1; Pyrrolidide = C1CCN(*)C1; Ac5c = NC1(C(=O)O)CCCC1; Aze = O=C(O)[C@@H]1CCN1; Ac4c = NC1(C(=O)O)CCC1; Cyclobutyl = C1CC(*)C1; Aib = CC(C)(N)C(=O)O; NEtG = CCNCC(=O)O; Sar = CNCC(=O)O; Propyl = CCC*

Molecular target: protein-protein interaction between Kras and SOS1 (biotin-tagged human Kras loaded with GDP, His-tagged human SOS1) (Homo sapiens (Human), UniProt P01116, G12D)
Assay: Protein-protein interaction inhibition between Kras and SOS1 (KrasG12D-SOS PPI) using AlphaScreen;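 further: kras produced in E. coli, Ni-coupled donor beads and streptavidin acceptor beads, excitation 680 nm with emission detected at 520–620 nm via singlet oxygen transfer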
Type: biochemical
Conditions: AlphaScreen; biotin-tagged human Kras loaded with GDP, His-tagged human SOS1; read-out: KRAS G12D-SOS PPI IC50

First: CCCOC[C@H]1C(=O)N(C)CC(=O)N[C@@H](CCc2ccc(C(F)(F)F)c(F)c2)C(=O)N2CCC[C@H]2C(=O)NC2(CCCC2)C(=O)N(C)[C@@H]([C@@H](C)CC)C(=O)N(C)[C@H](C)CC(=O)N(C)[C@@H](CC(C)C)C(=O)N[C@@H]([C@@H](C)CC)C(=O)N(C)[C@@H](C)C(=O)N2CC[C@H]2C(=O)N1C [Compound 694] (cyclo([Ac5c][NMeI][NMedβ3hAla][NMeL]I[NMeA][Aze][NMeS](Propyl)[Sar][hPhe(3-F,4-CF3)]P))
Second: CCO[C@@H]1C[C@H]2C(=O)NC3(CCC3)C(=O)N(C)[C@@H](C3CCCCC3)C(=O)N(C)[C@H](C)CC(=O)N(C)[C@@H](CC(C)C)C(=O)N[C@@H]([C@@H](C)CC)C(=O)N(C)[C@@H](C)C(=O)N3CC[C@H]3C(=O)N(CC)[C@@H](Cc3ccc(C)cc3)C(=O)N(C)CC(=O)N[C@@H](CCc3cc(F)c(C(F)(F)F)c(F)c3)C(=O)N2C1 [Compound 724] (cyclo([Ac4c][NMeChg][NMedβ3hAla][NMeL]I[NMeA][Aze][NEtPhe(4-Me)][Sar][hPhe(3,5-F2-4-CF3)][Hyp](Et)))
The IC50 of the first is 1.7-fold lower: 14 nM for the first, 24 nM for the second.

Going from `CC[C@H](C)[C@@H]1NC(=O)[C@H](CC(C)C)N(C)C(=O)C[C@@H](C(=O)N2CCCC2)NC(=O)[C@H](C2CCCC2)N(C)C(=O)C2(CCCC2)NC(=O)[C@@H]2CCCN2C(=O)[C@H](CCc2ccc(C(F)(F)F)c(Cl)c2)NC(=O)CN(C)C(=O)[C@H](CC2CCCCC2)N(C)C(=O)[C@@H]2CCN2C(=O)[C@H](C)N(C)C1=O` [Compound 700] ([NMeL]I[NMeA][Aze][NMeCha][Sar][hPhe(3-Cl-4-CF3)]P[Ac5c][NMeGly(cPent)]D-Pyrrolidide; lactam N-11) to `CC[C@H](C)[C@@H]1NC(=O)[C@H](CC(C)C)N(C)C(=O)C[C@@H](C(=O)N2CCC2)N(C)C(=O)[C@H](C2CCCC2)N(C)C(=O)C2(CCCC2)NC(=O)[C@@H]2CCCN2C(=O)[C@H](CCc2ccc(C(F)(F)F)c(Cl)c2)NC(=O)CN(CC)C(=O)[C@H](CC2CCCCC2)N(C)C(=O)[C@@H]2CCN2C(=O)[C@H](C)N(C)C1=O` [Compound 726] ([NMeL]I[NMeA][Aze][NMeCha][NEtG][hPhe(3-Cl-4-CF3)]P[Ac5c][NMeGly(cPent)][NMeD]-{Azetidin(1-yl)}; lactam N-11), the IC50 falls from 5 nM to 1.3 nM (3.8-fold). The second is the more potent here.

Going from `CC(C)C[C@H]1C(=O)N[C@@H](CC2CCC2)C(=O)N(C)[C@@H](C)C(=O)N2CC[C@H]2C(=O)N(C)[C@@H](CC2CCCCC2)C(=O)N(C)CC(=O)N[C@@H](CCc2ccc(C(F)(F)F)c(Cl)c2)C(=O)N2CCC[C@H]2C(=O)NC2(CCCC2)C(=O)N(C)[C@@H](C(C)C)C(=O)N(C)[C@H](C(=O)N2CCCCC2)CC(=O)N1C` [Compound 733] ([NMeL][Cba][NMeA][Aze][NMeCha][Sar][hPhe(3-Cl-4-CF3)]P[Ac5c][NMeV][NMeD]-Piperidide; lactam N-11) to `CC[C@H](C)[C@@H]1NC(=O)[C@H](COC2CCC2)N(C)C(=O)C[C@@H](C(=O)N2CCCCC2)N(C)C(=O)[C@H](C(C)C)N(C)C(=O)C2(CCCC2)NC(=O)[C@@H]2CCCN2C(=O)[C@H](CCc2ccc(C(F)(F)F)c(Cl)c2)NC(=O)CN(C)C(=O)[C@H](CC2CCCCC2)N(C)C(=O)[C@@H]2CCN2C(=O)[C@H](C)N(C)C1=O` [Compound 755] ([NMeS](Cyclobutyl)I[NMeA][Aze][NMeCha][Sar][hPhe(3-Cl-4-CF3)]P[Ac5c][NMeV][NMeD]-Piperidide; lactam N-11), the IC50 falls from 51 nM to 5.6 nM (9.1-fold).

First: CC[C@H](C)[C@@H]1NC(=O)[C@H](C(C)C)N(C)C(=O)C[C@@H](C)NC(=O)[C@H](CC(C)C)N(C)C(=O)C(C)(C)NC(=O)[C@H](CC(C)C)N(C)C(=O)[C@H](CCc2ccc(C(F)(F)F)c(Cl)c2)NC(=O)CN(C)C(=O)[C@H](Cc2ccc(Cl)cc2)N(C)C(=O)CN(C)C(=O)CN(C)C1=O [Compound 740] (cyclo([Aib][NMeL][d(β3hA)][NMeV]I[Sar][Sar][NMePhe(4-Cl)][Sar][hPhe(3-Cl-4-CF3)][NMeL]))
Second: CC[C@H](C)[C@@H]1NC(=O)[C@H](C)N(C)C(=O)C[C@@H](C)NC(=O)[C@H](C2CCCC2)N(C)C(=O)C2(CCCC2)NC(=O)[C@@H]2CCCN2C(=O)[C@H](CCc2ccc(C(F)(F)F)c(Cl)c2)NC(=O)CN(C)C(=O)[C@H](Cc2ccc(C(F)(F)F)cc2)N(C)C(=O)[C@@H]2CCCN2C(=O)CN(C)C1=O [Compound 749] (cyclo([Ac5c][NMeGly(cPent)][d(β3hA)][NMeA]I[Sar]P[NMePhe(4-CF3)][Sar][hPhe(3-Cl-4-CF3)]P))
The IC50 of the first is 3.9-fold higher: 11 nM for the first, 2.8 nM for the second. The second is the more potent here.

`CCO[C@@H]1C[C@H]2C(=O)NC3(CCC3)C(=O)N(C)[C@@H](C3CCCCC3)C(=O)N(C)[C@H](C)CC(=O)N(C)[C@@H](CC(C)C)C(=O)N[C@@H]([C@@H](C)CC)C(=O)N[C@@H](C)C(=O)N3CC[C@H]3C(=O)N(CC)[C@@H](Cc3ccc(C(F)(F)F)cc3)C(=O)N(C)CC(=O)N[C@@H](CCc3ccc(C(F)(F)F)c(Cl)c3)C(=O)N2C1` [Compound 743] (cyclo(A[Aze][NEtPhe(4-CF3)][Sar][hPhe(3-Cl-4-CF3)][Hyp](Et)[Ac4c][NMeChg][NMedβ3hAla][NMeL]I)) was tested, and the IC50 was 40 nM.
